The text below walks through data of PMC9525273 (Nature Communications, 2022).

Format in all cases: cell-based, Plasmodium falciparum
Assay [1] concerns parasite lines with a G358S mutation in PfATP4. The experiment in a line: P. falciparum proliferation assays, statements on all lines with the G358S mutation. Conditions: G358S lines vs PfATP4 wild-type controls. Here is the method: (§1) Two types of parasite proliferation assays were employed in this study, with both yielding highly consistent results. For the NF54-based lines and Dd2-B2-PfATP4^G358S and its parent, assays were initiated with cultures containing predominantly ring-stage parasites with a parasitaemia of 0.3% and a haematocrit of 1%. All assays using NF54 were performed in culture media containing 10% O + human serum. The duration of the assays was 72 h and the concentration of DMSO was <0.5% (v/v). Serial dilutions of the test compounds were performed using a Tecan D300e digital dispenser, with parasite cultures added manually. Parasite survival was assessed by flow cytometry on an Intellicyt iQue3 (Essen Bioscience), with 1× SYBR Green I (Invitrogen) and 200 nM MitoTracker Deep Red FM (Invitrogen) used to stain the nucleus and the mitochondria in live parasites, respectively. The gating strategy used to quantify parasite survival, performed using FlowJo version 10 (FlowJo LLC.), is illustrated in Supplementary Fig. 9. IC50 and IC90 values were calculated by linear interpolation of the dose-response data.
For experiments with all other parasites, the effects of compounds of interest on parasite proliferation was measured in 96-well plates containing serial dilutions of the compounds in culture medium, with a fluorescent DNA-intercalating dye used to detect surviving parasites. The assays were initiated with erythrocytes infected with predominantly ring-stage parasites, and the starting parasitaemia and haematocrit were both 1%. […] Fluorescence was measured using a FLUOstar OPTIMA plate reader (BMG LABTECH), with OPTIMA version 2.20R2 and MARS Data Analysis Software version 3.01 R2 (BMG LABTECH).

A further assay deals with NF54^WT parasites. The experiment in a line: microbe, parasite or virus in culture. The procedure: as §1, with “For” for “Two types of parasite proliferation assays were employed in this study, with both yielding highly consistent results. For”
The next assay concerns NF54^G358S-1 parasites. The experiment in a line: P. falciparum proliferation assay (72 h, flow cytometry, SYBR Green I/MitoTracker). Conditions: for FC (IC50) / FC (IC90): NF54G358S-1 compared to NF54WT. Here is the method:
as §1, with “For” for “Two types of parasite proliferation assays were employed in this study, with both yielding highly consistent results. For”
(In general: In flow cytometry, cells or beads pass a laser one at a time.)

In a further assay the test system is NF54^G358S-2 parasites. The description is as above. The procedure:
as §1, with “For” for “Two types of parasite proliferation assays were employed in this study, with both yielding highly consistent results. For”

Another assay concerns NF54^CTL parasites. The assay is described as above. The procedure: as §1, with “For” for “Two types of parasite proliferation assays were employed in this study, with both yielding highly consistent results. For”
Assay [2] concerns Dd2-Polδ-PfATP4^G358S parasites. The experiment in a line: P. falciparum proliferation assay (72 h, fluorescent DNA-intercalating dye). The following applies: for IC50: Dd2-Polδ-PfATP4G358S parasites. The procedure:
(§2) For experiments with all other parasites, the effects of compounds of interest on parasite proliferation was measured in 96-well plates containing serial dilutions of the compounds in culture medium, with a fluorescent DNA-intercalating dye used to detect surviving parasites. The assays were initiated with erythrocytes infected with predominantly ring-stage parasites, and the starting parasitaemia and haematocrit were both 1%.

The next assay concerns Dd2-Polδ parasites. The description is as above. Conditions: Dd2-Polδ parasites. The procedure:
as §2

Where [3] appears, read: NF54WT parasites, individual experiments, read-out: IC50 values.
[4] abbreviates: NF54WT parasites, individual experiments, read-out: IC90 values.
Where [5] appears, read: NF54G358S-1 parasites, individual experiments, read-out: IC50 values.
Setting [6] is: NF54G358S-1 parasites, individual experiments, read-out: IC90 values.
The mark [7] stands for this setting: NF54G358S-2 parasites, individual experiments, read-out: IC50 values.
[8] abbreviates: NF54G358S-2 parasites, individual experiments, read-out: IC90 values.
The mark [9] stands for this setting: NF54CTL parasites, individual experiments, read-out: IC50 values.
Where [10] appears, read: individual experiments, read-out: IC50 values.
Where [11] appears, read: mean of the experiments, read-out: IC50 values, MEAN.

Several values for one entry are separate records, joined by “and”; a condition that tells them apart may be missing. Equal values may be shown once. Read-outs that look alike come from different tables or passages of the source.

For `CCCCN(CCCC)CC(O)c1cc(Cl)cc2c1-c1ccc(Cl)cc1/C2=C/c1ccc(Cl)cc1` (stereo not shown) [Lumefantrine], the “effect of the G358S mutation in PfATP4 on parasite susceptibility” value in assay [1] is on record as “no effect”. The IC50 with NF54^WT parasites (setting [3]) is 57 nM and 33.7 nM and 89.8 nM and 48.6 nM; in the assay with NF54^WT parasites (Plasmodium falciparum, NF54, NF54WT parasites, mean of the experiments, read-out: IC50 values, MEAN), 57.3 nM; in the assay on NF54^G358S-1 parasites (setting [5]) it was 34 nM and 51.7 nM and 36.1 nM; in the assay with NF54^G358S-1 parasites (Plasmodium falciparum, NF54, NF54G358S-1 parasites, individual experiments, read-out: IC50 values), 48.2 nM; with NF54^G358S-1 parasites (Plasmodium falciparum, NF54, NF54G358S-1 parasites, mean of the experiments, read-out: IC50 values, MEAN), 42.5 nM; in the assay on NF54^G358S-2 parasites (setting [7]), 31.8 nM and 46.1 nM and 31.3 nM. Besides, the half-inhibitory concentration (IC50) was 55.1 nM in the assay on NF54^G358S-2 parasites (Plasmodium falciparum, NF54, NF54G358S-2 parasites, individual experiments, read-out: IC50 values); 41.1 nM with NF54^G358S-2 parasites (Plasmodium falciparum, NF54, NF54G358S-2 parasites, mean of the experiments, read-out: IC50 values, MEAN); 38.6 nM and 28.4 nM and 70.8 nM and 45.8 nM with NF54^CTL parasites (setting [9]); 45.9 nM in the assay on NF54^CTL parasites (Plasmodium falciparum, NF54, NF54CTL parasites, mean of the experiments, read-out: IC50 values, MEAN). For the same molecule, the 90% effect concentration (IC90) is 102 nM and 140 nM and 109 nM with NF54^WT parasites (setting [4]); 142 nM in the assay with NF54^WT parasites (Plasmodium falciparum, NF54, NF54WT parasites, individual experiments, read-out: IC90 values); 123 nM with NF54^WT parasites (Plasmodium falciparum, NF54, NF54WT parasites, mean of the experiments, read-out: IC90 values, MEAN); 115 nM and 130 nM and 120 nM with NF54^G358S-1 parasites (setting [6]); 182 nM with NF54^G358S-1 parasites (Plasmodium falciparum, NF54, NF54G358S-1 parasites, individual experiments, read-out: IC90 values); 137 nM in the assay on NF54^G358S-1 parasites (Plasmodium falciparum, NF54, NF54G358S-1 parasites, mean of the experiments, read-out: IC90 values, MEAN). For the same molecule, the IC90 in the assay with NF54^G358S-2 parasites (setting [8]) is 82.7 nM and 129 nM and 123 nM; with NF54^G358S-2 parasites (Plasmodium falciparum, NF54, NF54G358S-2 parasites, individual experiments, read-out: IC90 values) it was 152 nM; in the assay on NF54^G358S-2 parasites (Plasmodium falciparum, NF54, NF54G358S-2 parasites, mean of the experiments, read-out: IC90 values, MEAN) it was 122 nM; with NF54^CTL parasites (NF54CTL parasites, individual experiments, read-out: IC90 values), 98.1 nM and 138 nM and 120 nM; in the assay with NF54^CTL parasites (Plasmodium falciparum, NF54, NF54CTL parasites, individual experiments, read-out: IC90 values), 138 nM; in the assay on NF54^CTL parasites (Plasmodium falciparum, NF54, NF54CTL parasites, mean of the experiments, read-out: IC90 values, MEAN), 123 nM. The “FC (IC50)” value with NF54^WT parasites (NF54WT, reference line) came to 1.0 fold; in the assay with NF54^G358S-1 parasites it was 0.7 fold; in the assay on NF54^G358S-2 parasites (NF54G358S-2 compared to NF54WT), 0.7 fold; in the assay with NF54^CTL parasites (NF54CTL compared to NF54WT), 0.8 fold. The “FC (IC90)” value in the assay with NF54^WT parasites (NF54WT, reference line) amounted to 1.0 fold; in the assay on NF54^G358S-1 parasites, 1.1 fold; with NF54^G358S-2 parasites (NF54G358S-2 compared to NF54WT) it was 1.0 fold; with NF54^CTL parasites (NF54CTL compared to NF54WT), 1.0 fold.
For `CCOC(=O)C1=CN(C)C=C(C(=O)OCC)C1c1cc(Br)c(OCC)c(OC)c1` [MMV006656], the IC50 in assay [2] (setting [10]) is 1560 nM and 1990 nM and 1300 nM and 2350 nM; in assay [2] (setting [11]), 1800 nM; with Dd2-Polδ parasites (setting [10]), 435 nM and 243 nM and 394 nM and 305 nM; with Dd2-Polδ parasites (setting [11]), 344 nM. In addition, the “IC50 fold higher than that of Dd2-Polδ parent” value in assay [2] (Dd2-Polδ-PfATP4G358S vs Dd2-Polδ, mean ± SEM) is listed as 5.7 ± 1.3 fold.
Regarding `CCNCc1cc(Nc2ccnc3cc(Cl)ccc23)ccc1O` [Monodesethyl‐amodiaquine], the “effect of the G358S mutation in PfATP4 on parasite susceptibility” value in assay [1] is “no effect”. The half-maximal inhibitory concentration (IC50) is 10.5 nM in the assay with NF54^WT parasites (setting [3]); 6.9 nM with NF54^WT parasites (NF54WT parasites, mean of the experiments, read-out: IC50 values, MEAN); 5.7 nM with NF54^WT parasites (read-out: IC50 values); 7.6 ± 0.8 nM in the assay on NF54^G358S-1 parasites (NF54G358S-1, 10% human serum, read-out: IC50 ± SEM); 5.6 nM and 7.6 nM and 8.1 nM and 9.2 nM with NF54^G358S-1 parasites (setting [5]); 7.6 nM in the assay on NF54^G358S-1 parasites (NF54G358S-1 parasites, mean of the experiments, read-out: IC50 values, MEAN). Moreover, the IC50 was 5.9 nM and 7.4 nM and 7 nM in the assay with NF54^G358S-2 parasites (setting [7]); 6.8 nM with NF54^G358S-2 parasites (NF54G358S-2 parasites, mean of the experiments, read-out: IC50 values, MEAN); 6.5 nM and 6.8 nM and 7.4 nM and 7.2 nM in the assay with NF54^CTL parasites (setting [9]); 7 nM with NF54^CTL parasites (NF54CTL parasites, mean of the experiments, read-out: IC50 values, MEAN). Besides, the IC90 in the assay on NF54^WT parasites (setting [4]) was 7.38 nM and 7.32 nM and 7.45 nM and 14.6 nM; with NF54^WT parasites (NF54WT parasites, mean of the experiments, read-out: IC90 values, MEAN), 9.2 nM; in the assay on NF54^G358S-1 parasites (setting [6]) it was 7.37 nM and 14 nM (2×) and 14.3 nM; in the assay with NF54^G358S-1 parasites (NF54G358S-1 parasites, mean of the experiments, read-out: IC90 values, MEAN) it was 12.4 nM; in the assay on NF54^G358S-2 parasites (setting [8]), 7.97 nM and 13.8 nM and 13.5 nM; in the assay on NF54^G358S-2 parasites (NF54G358S-2 parasites, mean of the experiments, read-out: IC90 values, MEAN), 12.2 nM. In addition, the “FC (IC50)” value with NF54^WT parasites (NF54WT, reference line) is recorded as 1.0 fold; in the assay with NF54^G358S-1 parasites, 1.1 fold; with NF54^G358S-2 parasites (NF54G358S-2 compared to NF54WT), 1.0 fold; in the assay on NF54^CTL parasites (NF54CTL compared to NF54WT), 1.0 fold. The “FC (IC90)” value in the assay on NF54^WT parasites (NF54WT, reference line) was 1.0 fold; in the assay on NF54^G358S-1 parasites it was 1.4 fold; with NF54^G358S-2 parasites (NF54G358S-2 compared to NF54WT), 1.3 fold; with NF54^CTL parasites (NF54CTL compared to NF54WT), 1.5 fold. Also, the “FC (Mean IC90/IC50)” value worked out at 1.0 fold in the assay on NF54^WT parasites (NF54WT, reference line); 1.3 fold with NF54^G358S-2 parasites (NF54G358S-2 compared to NF54WT); 1.5 fold with NF54^CTL parasites (NF54CTL compared to NF54WT).

A word on the IC50: it is the point on the concentration scale where inhibition reaches its midpoint. As usually defined, the IC90 is the concentration needed for an effect of 90%.
